# Results reported in US20130267494A1, “1,4-OXAZEPANE DERIVATIVES” (priority 2010, published 2013).
# Where a name gives a salt, the structure may show the parent alone. Read-outs that look alike come from different tables or passages of the source.
# Columns and labels:
# Type in all cases: cell-based
# [1] = biological target: T1, human serotonin transporter (Homo sapiens, UniProt P31645); assay: Inhibitory action on human serotonin transporter ([3H]-5-hydroxytryptamine uptake in CHO cells); details: compound 1 μM, relative to inhibitory activity of 10 μM Paroxetine as 100%; for inhibition at 1 µM: CHO, read-out: inhibitory rate (%)
# T1 construct: expressed in transfected cells
# In short: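 CHO-K1 cells stably expressing human SERT, plated overnight, took up [3H]-5-HT (diluted to 200 nM before a 1:10 addition) for 20 min in HEPES-buffered saline with glucose and 0.5% BSA; radioactivity counted by scintillation. Compounds at 10 μM or 1 μM, activity expressed relative to 10 μM paroxetine set as 100%.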
# [2] = biological target: T2, human norepinephrine transporter (Homo sapiens, UniProt P23975); assay: Inhibitory action on human norepinephrine transporter ([3H]-norepinephrine uptake in CHO cells); details: relative to inhibitory activity of 10 μM DMI as 100%; for inhibition at 1 µM: CHO
# T2 construct: expressed in transfected cells
# In short: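 Stably transfected CHO-K1 cells plated overnight, then given test compound and [3H]-norepinephrine (20 nM final, from 200 nM) in HEPES-buffered saline with 0.5% BSA for 45 min. After PBS washes, retained radioactivity counted by scintillation. Inhibition at 10 μM or 1 μM compound expressed relative to 10 μM DMI as 100%.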
# [3] = biological target: T3, human dopamine transporter (Homo sapiens, UniProt Q01959); assay: Inhibitory action on human dopamine transporter ([3H]-dopamine uptake in CHO cells); details: compound 1 μM, relative to inhibitory activity of 100 μM Nomifensine as 100%; for inhibition at 1 µM: CHO, read-out: inhibitory rate (%)
# T3 construct: expressed in transfected cells
# In short: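 CHO-K1 cells stably expressing human dopamine transporter, exposed to compound at 10 μM or 1 μM in HEPES-buffered saline with 0.5% BSA. [3H]-dopamine uptake measured over 60 min by scintillation counting. Activity expressed relative to 100 μM nomifensine as 100%.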
# [4] = compound 1 μM, read-out: inhibitory rate (%)
# [5] = read-out: inhibitory rate (%), compound 1 μM
# T1 sequence (P31645 whole entry): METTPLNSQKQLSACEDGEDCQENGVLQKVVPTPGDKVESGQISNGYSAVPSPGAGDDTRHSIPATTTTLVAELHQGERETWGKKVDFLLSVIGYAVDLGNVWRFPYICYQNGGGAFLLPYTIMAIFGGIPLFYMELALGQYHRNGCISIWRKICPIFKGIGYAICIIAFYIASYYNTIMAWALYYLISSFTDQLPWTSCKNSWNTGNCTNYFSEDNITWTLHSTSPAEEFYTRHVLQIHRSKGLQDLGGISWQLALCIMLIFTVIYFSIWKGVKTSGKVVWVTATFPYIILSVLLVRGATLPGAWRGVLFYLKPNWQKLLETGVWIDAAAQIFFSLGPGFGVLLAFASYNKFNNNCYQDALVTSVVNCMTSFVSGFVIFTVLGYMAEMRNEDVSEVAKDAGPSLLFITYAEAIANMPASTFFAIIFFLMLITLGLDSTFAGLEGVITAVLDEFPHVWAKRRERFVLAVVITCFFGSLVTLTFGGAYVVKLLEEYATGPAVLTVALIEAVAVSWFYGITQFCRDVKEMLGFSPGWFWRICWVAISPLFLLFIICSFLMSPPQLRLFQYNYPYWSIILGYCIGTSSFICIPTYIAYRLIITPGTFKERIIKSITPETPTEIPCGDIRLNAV
# T2 sequence (P23975 whole entry): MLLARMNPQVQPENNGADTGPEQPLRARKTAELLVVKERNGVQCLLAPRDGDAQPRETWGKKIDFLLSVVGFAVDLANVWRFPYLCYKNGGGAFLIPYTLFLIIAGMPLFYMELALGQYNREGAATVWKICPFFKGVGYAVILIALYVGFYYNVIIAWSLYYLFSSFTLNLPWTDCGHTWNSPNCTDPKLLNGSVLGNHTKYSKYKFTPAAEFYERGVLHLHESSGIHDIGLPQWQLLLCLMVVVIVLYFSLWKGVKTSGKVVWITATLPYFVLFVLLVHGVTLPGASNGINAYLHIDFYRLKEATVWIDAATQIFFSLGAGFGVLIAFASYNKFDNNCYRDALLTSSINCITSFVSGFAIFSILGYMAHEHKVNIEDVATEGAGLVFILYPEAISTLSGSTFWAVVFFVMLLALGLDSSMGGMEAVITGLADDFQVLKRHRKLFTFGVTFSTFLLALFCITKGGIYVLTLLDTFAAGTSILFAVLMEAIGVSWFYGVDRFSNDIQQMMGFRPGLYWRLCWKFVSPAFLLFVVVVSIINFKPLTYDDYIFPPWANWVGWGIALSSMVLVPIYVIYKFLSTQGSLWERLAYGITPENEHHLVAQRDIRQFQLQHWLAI
# T3 sequence (Q01959 whole entry): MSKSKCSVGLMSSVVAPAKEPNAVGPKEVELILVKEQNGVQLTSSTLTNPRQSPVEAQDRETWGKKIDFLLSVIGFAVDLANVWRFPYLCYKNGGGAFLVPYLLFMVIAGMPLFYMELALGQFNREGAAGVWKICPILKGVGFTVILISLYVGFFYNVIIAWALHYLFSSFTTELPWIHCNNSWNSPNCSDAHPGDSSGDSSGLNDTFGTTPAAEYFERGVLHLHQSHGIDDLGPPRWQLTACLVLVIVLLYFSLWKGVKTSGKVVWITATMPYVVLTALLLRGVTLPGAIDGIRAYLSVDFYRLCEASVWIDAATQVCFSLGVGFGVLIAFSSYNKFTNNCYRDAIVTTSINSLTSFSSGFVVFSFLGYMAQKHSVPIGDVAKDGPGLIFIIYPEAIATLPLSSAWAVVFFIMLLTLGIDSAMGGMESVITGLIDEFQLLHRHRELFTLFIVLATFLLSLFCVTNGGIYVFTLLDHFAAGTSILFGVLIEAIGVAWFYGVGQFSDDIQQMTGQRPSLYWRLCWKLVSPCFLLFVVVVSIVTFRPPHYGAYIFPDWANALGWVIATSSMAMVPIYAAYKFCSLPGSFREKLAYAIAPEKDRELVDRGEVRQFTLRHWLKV
SMILES,inhibition at 1 µM [1],"inhibition at 1 µM [2, 4]",inhibition at 1 µM [3],inhibitory rate (%) [1],inhibitory rate (%) ([2]; compound 1 μM),inhibitory rate (%) [3],"inhibition at 1 µM [2, 5]"
"CO[C@]1(CNS(C)(=O)=O)CNCCO[C@@H]1c1ccc(Cl)c(Cl)c1 (racemic) [Example 523, N-{[(6RS,7SR)-7-(3,4-dichlorophenyl)-6-methoxy-1,4-oxazepan-6-yl]methyl}methanesulfonamide monohydrochloride]",64%,91%,2%,–,–,–,–
"O=C(O)c1cccnc1NC[C@@H]1CNCCO[C@H]1c1ccc(Cl)c(Cl)c1 [Example 176, 2-({[(6S,7R)-7-(3,4-dichlorophenyl)-1,4-oxazepan-6-yl]methyl}amino)pyridine-3-carboxylic acid monohydrochloride]",80%,101%,20%,–,–,–,–
"O=C1CCCCN1C[C@@H]1CNCCO[C@H]1c1ccc(Cl)c(F)c1 [Example 376, 1-{[(6S,7R)-7-(4-chloro-3-fluorophenyl)-1,4-oxazepan-6-yl]methyl}piperidin-2-one monohydrochloride]",98%,102%,89%,–,–,–,–
"O=S(=O)(NC[C@@]1(O)CNCCO[C@@H]1c1ccc(Cl)c(Cl)c1)C(F)F (racemic) [Example 521, N-{[(6RS,7SR)-7-(3,4-dichlorophenyl)-6-hydroxy-1,4-oxazepan-6-yl]methyl}-1,1-difluoromethanesulfonamide monohydrochloride]",84%,104%,76%,–,–,–,–
"O=c1[nH]nc(-c2cccn(C[C@@H]3CNCCO[C@H]3c3ccc(Cl)c(F)c3)c2=O)[nH]1 [Example 379, 1-{[(6S,7R)-7-(4-chloro-3-fluorophenyl)-1,4-oxazepan-6-yl]methyl}-3-(5-oxo-4,5-dihydro-1H-1,2,4-triazol-3-yl)pyridin-2(1H)-one monohydrochloride]",95%,102%,64%,–,–,–,–
"CS(=O)(=O)NC[C@H]1CNCCO[C@@H]1c1ccc(F)c(Cl)c1 (racemic) [Example 293, N-{[(6RS,7SR)-7-(3-chloro-4-fluorophenyl)-1,4-oxazepan-6-yl]methyl}methanesulfonamide monohydrochloride]",65%,95%,31%,–,–,–,–
"O=C(CC(F)(F)F)NC[C@@H]1CNCCO[C@H]1c1ccc(Cl)c(F)c1 [Example 314, N-{[(6S,7R)-7-(4-chloro-3-fluorophenyl)-1,4-oxazepan-6-yl]methyl}-3,3,3-trifluoropropanamide monohydrochloride]",49%,104%,11%,–,–,–,–
"NC(=O)NC[C@H]1CNCCO[C@@H]1c1ccc(Cl)c(Cl)c1 [Example 153, 1-{[(6R,7S)-7-(3,4-dichlorophenyl)-1,4-oxazepan-6-yl]methyl}urea monofumarate]",93%,–,49%,–,–,–,95%
"OC[C@@H]1CNCCO[C@H]1c1ccc(Cl)c(Cl)c1 [Example 72, [(6S,7R)-7-(3,4-dichlorophenyl)-1,4-oxazepan-6-yl]methanol monohydrochloride]",90%,–,41%,–,–,–,95%
"CS(=O)(=O)CC1(O)CNCCOC1c1ccc(Cl)c(F)c1 (stereo not drawn) [Example 572, 7-(4-chloro-3-fluoro-phenyl)-6-[(methyl-sulfonyl)-methyl]-1,4-oxazepan-ol]",95%,103%,62%,–,–,–,–
"OCCC[C@@H]1CNCCO[C@H]1c1ccc(Cl)c(Cl)c1 [Example 212, 3-[(6R,7R)-7-(3,4-dichlorophenyl)-1,4-oxazepan-6-yl]propan-1-ol monohydrochloride]",98%,103%,94%,–,–,–,–

# Further lines, with some results ahead:
inhibition at 1 µM [1],"inhibition at 1 µM [2, 4]",inhibition at 1 µM [3],inhibitory rate (%) [1],inhibitory rate (%) ([2]; compound 1 μM),inhibitory rate (%) [3],SMILES,"inhibition at 1 µM [2, 5]"
97%,109%,46%,–,–,–,"O=c1[nH]nc(-c2cccn(C[C@@H]3CNCCO[C@H]3c3ccc(Cl)c(F)c3)c2=O)o1 [Example 550, 1-{[(6S,7R)-7-(4-chloro-3-fluorophenyl)-1,4-oxazepan-6-yl]methyl}-3-(5-oxo-4,5-dihydro-1,3,4-oxadiazol-2-yl)pyridin-2(1H)-one monohydrochloride]",–
71%,98%,52%,–,–,–,"NC(=O)N[C@@H]1CNCCO[C@H]1c1ccc(Cl)c(Cl)c1 [Example 262, 1-[(6R,7S)-7-(3,4-dichlorophenyl)-1,4-oxazepan-6-yl]urea monohydrochloride]",–
93%,100%,82%,–,–,–,"CS(=O)(=O)N[C@@H]1CNCCO[C@@H]1c1ccc(Cl)c(Cl)c1 (racemic) [Example 63, N-[(6RS,7RS)-7-(3,4-dichlorophenyl)-1,4-oxazepan-6-yl]methanesulfonamide monohydrochloride]",–
–,–,–,91%,98%,19%,"Cc1cc(C2OCCNCC2CO)ccc1Cl (stereo not drawn) [Example 402, [(6R*,7S*)-7-(4-chloro-3-methylphenyl)-1,4-oxazepan-6-yl]methanol monohydrochloride (retention time long)]",–
–,–,–,51%,103%,6%,"OCC1CNCCOC1c1ccc(Cl)c(F)c1 (stereo not drawn) [Example 441, [(6R*,7R*)-7-(4-chloro-3-fluorophenyl)-1,4-oxazepan-6-yl]methanol monohydrochloride (retention time long)]",–
65%,105%,40%,–,–,–,"CS(=O)(=O)NC[C@@]1(O)CNCCO[C@@H]1c1ccc(Cl)c(Cl)c1 (racemic) [Example 162, N-{[(6RS,7SR)-7-(3,4-dichlorophenyl)-6-hydroxy-1,4-oxazepan-6-yl]methyl}methanesulfonamide monohydrochloride]",–
86%,101%,53%,–,–,–,"Cc1cc(C(=O)O)nn1C[C@@H]1CNCCO[C@H]1c1ccc(Cl)c(Cl)c1 [Example 187, 1-{[(6S,7R)-7-(3,4-dichlorophenyl)-1,4-oxazepan-6-yl]methyl}-5-methyl-1H-pyrazole-3-carboxylic acid monohydrochloride]",–
62%,105%,57%,–,–,–,"OCCOC[C@@H]1OCCNC[C@H]1c1ccc(Cl)c(Cl)c1 [Example 496, 2-{[(6R,7R)-6-(3,4-dichlorophenyl)-1,4-oxazepan-7-yl]methoxy}ethanol monohydrochloride]",–
59%,100%,25%,–,–,–,"O[C@H]1CNCCO[C@@H]1c1ccc(Cl)c(Cl)c1 (racemic) [Example 230, (6RS,7SR)-7-(3,4-dichlorophenyl)-1,4-oxazepan-6-ol monohydrochloride]",–
75%,100%,17%,–,–,–,"Cc1cc(C2OCCNCC2CO)ccc1Cl (stereo not drawn) [Example 401, [(6R*,7S*)-7-(4-chloro-3-methylphenyl)-1,4-oxazepan-6-yl]methanol monohydrochloride (retention time short)]",–
99%,98%,66%,–,–,–,"CS(=O)(=O)CC(=O)NC[C@H]1CNCCO[C@@H]1c1ccc(Cl)c(Cl)c1 [Example 115, N-{[(6R,7S)-7-(3,4-dichlorophenyl)-1,4-oxazepan-6-yl]methyl}-2-(methylsulfonyl)acetamide monohydrochloride]",–
15%,70%,14%,–,–,–,"OC[C@H]1OCCNC[C@@H]1c1ccc(Cl)c(Cl)c1 [Example 487, [(6S,7S)-6-(3,4-dichlorophenyl)-1,4-oxazepan-7-yl]methanol monohydrochloride]",–
